Test results from patent US7470724B2, “Phosphonate compounds having immuno-modulatory activity” (Gilead Sciences, Inc., priority 2003, dated 2008).

Experiment: Pro-drug cleavage by human PBMC extracts
Type: in vitro ADME
Conditions: cleavage rate per μg protein; 30 μM substrate, pH 6.5, 37° C., 10-120 minutes; disappearance of pro-drug by HPLC at 260 nm
Method: Fresh human PBMCs were obtained from patients undergoing leukophoresis; cells were shipped in plasma and processed within 26 h of draw. Purification was achieved using the Ficoll-Paque method: PBMC cells were harvested by centrifugation at 1200×g for 5 minutes and washed three times by re-suspension in RBC lysis buffer (155 mM NH4Cl, 0.1 mM EDTA, 10 mM KHCO3). Washed cells were suspended in lysis buffer (0.2×10^9 cells in 1 ml of 10 mM Tris, pH 7.4, 150 mM NaCl, 20 mM CaCl2, 1 mM DTT and 1% NP40) and incubated on ice for 20 minutes. The PBMC crude extract was centrifuged at 1000×g for 30 min to remove unlysed cells and the supernatant at 100,000×g for 1 h. The 100,000×g supernatant (PBMC Extract: P0) was harvested, snap frozen in liquid nitrogen and stored at −70° C.
Reaction mixtures contained 25 mM MesNa (pH 6.5), 100 mM NaCl, 1 mM DTT, 0.1% NP-40, 30 μM substrate, and varying amounts of enzyme in a final volume of 100 μl. The enzymatic reaction is performed at 37° C. for 10-120 minutes and stopped at 3-4 individual time points by adding 180 μl of ice cold methanol. Samples are incubated @−20° C. for 30 min, and centrifuged 13,000 RPM for 30 min (@ 4° C.). The supernatant is transferred to a 96 well plate and evaporated under vacuum using a speedvac. The precipitate is dissolved in 100 μl of 20 mM CH3COONH4+5% AcCN. The disappearance of pro-drug is measured by HPLC, monitoring at 260 nm. The specific activity of the PBMC Extract against the prodrugs tested is defined as: v (cleavage rate)/μg protein=pmoles/min/μg.

SMILES | Human PBMC extract specific activity [pmol/min/µg]
CCOC(=O)C(C)NP(=O)(CCC(C)(C)CCn1cnc2c(=O)[nH]c(N)nc21)Oc1ccccc1 (stereo not shown) [Example 130-1] | 3.48
CCOC(=O)C(C)NP(=O)(CCC(C)(C)CCn1cnc2c(=O)[nH]c(N)nc21)N[C@@H](C)C(=O)OCC (stereo partly shown) [Example 130-2] | 0.65
CCOC(=O)C(C)NP(=O)(/C=C/c1ccccc1Cn1cnc2c(=O)[nH]c(N)nc21)Oc1ccccc1 (stereo not shown) [Example 133-1] | 4.9
CCOC(=O)C(C)NP(=O)(/C=C/c1ccccc1Cn1cnc2c(=O)[nH]c(N)nc21)N[C@@H](C)C(=O)OCC (stereo partly shown) [Example 133-2] | 0.38
